Laboratory results taken from patent US10807951B2, “mTORC1 modulators” (THE REGENTS OF THE UNIVERSITY OF CALIFORNIA, priority 2017, dated 2020).

Legend:
[1] = in vivo; cited from earlier work
LAMTOR5 = LAMTOR5 (Homo sapiens, UniProt O43504); assay: Rhodamine labeling with alkyne probe on purified Lamtor-Rag complexes; assay type: binding; details: preliminary experiments
Excerpt: (§1) FIGS. 8A-8B. (FIG. 8A) Structures of CC 2-11 and CC 1-44. CC 2-11 bears an alkyne group on a separate ring from the cysteine-reactive warhead. The presence of the alkyne group enables us to directly label the modified target protein (e.g. Lamtor5) with biotin or rhodamine groups, either in gels or in complex proteomes. […] Thus, CC 2-11 allows precise mapping of the target cysteines as well as accurate identification of the off-targets.
as §1, with “We also synthesized a” for “FIGS. 8A-8B. (FIG. 8A) Structures of”, “1-44 derivative, named” for “2-11 and”, “2-11, which” for “1-44. CC 2-11”, “warhead (FIG. 8A).” for “warhead.”, “will allow” for “allows”

Question: Which bioavailability [1] does the source give for CO[C@H]1C[C@@H]2CC[C@@H](C)[C@@](O)(O2)C(=O)C(=O)N2CCCC[C@H]2C(=O)O[C@H]([C@H](C)C[C@@H]2CC[C@@H](O)[C@H](OC)C2)CC(=O)[C@H](C)/C=C(\C)[C@@H](O)[C@@H](OC)C(=O)[C@H](C)C[C@H](C)/C=C/C=C/C=C/1C [rapamycin] here?
Answer: The bioavailability was “good”.

Question: With C#Cc1cc(COc2cccc3c2ccn3C(=O)C=C)cc(C(F)(F)F)c1 [CC 2-11] as the molecule, how does the “direct rhodamine labeling of target protein by alkyne probe” value (LAMTOR5) read?
Answer: Its value is “enables rhodamine labeling of a 28 KDa band corresponding to Lamtor5”.
